This note sets out measurements from US20250042914A1, “PIKFYVE KINASE INHIBITOR” (HANMI PHARM. CO., LTD., priority 2021, published 2025).

The target in the test is human-derived PIKfyve kinase (Homo sapiens (Human), UniProt Q9Y2I7). Briefly: PIKfyve enzyme inhibition assay (ADP-Glo). It counts as biochemical. The note with it: PIKfyve enzyme inhibitory assay; PI(3)P 10 μm, ATP 2 μm, 60 minutes. As to the method:
For each of the compounds prepared in Examples 1 to 33, the PIKfyve enzyme inhibitory activity was measured by using a QS S Assis PIKFYVE (PIP5K3)_ADP-Glo™ Kit (Cat. #11-118) made by Carna Bioscience. 5 μL of each of human-derived PIKfyve kinase, PI(3)P, and ATP solution was added to a 384-well plate (such that final concentrations of each solution are 375 ng/ml, 10 μm, and 2 μm, respectively). The compound to be evaluated underwent serial dilution according to the set concentrations, and 5 μL of the diluted solution was added to each well and caused a reaction for 60 minutes. MgCl2 was mixed in ADP-Glo™ solution (Promega, Cat. #V9102) to a final concentration of 100 mM, and 20 μL of the mixed solution was added to each well and caused a reaction at room temperature for 40 minutes. 40 μL of kinase detection solution was added to each well and caused a reaction at room temperature for 40 minutes. Then, the luminescence signals were detected by using a Synergy™ NEO microplate analyzer. Well to which no enzyme was added were used as a negative control, whereas wells to which no drug was added were used as a positive control, so as to calculate the enzyme inhibitory ability (%) of drugs. The 50% inhibitor concentration (IC50) values were calculated by using a GraphPad Prism software.
In Table 1, when the case where the IC50 value was 50 nM or less was indicated as A, the case where the IC50 value was greater than 50 nM but equal to or less than 100 nM was indicated as B, and the case where the IC50 value was greater than 100 nM was indicated as C.
For orientation: ADP-Glo turns the ADP formed in a reaction into a luminescent signal.

Chain of human-derived PIKfyve kinase (Q9Y2I7 whole entry): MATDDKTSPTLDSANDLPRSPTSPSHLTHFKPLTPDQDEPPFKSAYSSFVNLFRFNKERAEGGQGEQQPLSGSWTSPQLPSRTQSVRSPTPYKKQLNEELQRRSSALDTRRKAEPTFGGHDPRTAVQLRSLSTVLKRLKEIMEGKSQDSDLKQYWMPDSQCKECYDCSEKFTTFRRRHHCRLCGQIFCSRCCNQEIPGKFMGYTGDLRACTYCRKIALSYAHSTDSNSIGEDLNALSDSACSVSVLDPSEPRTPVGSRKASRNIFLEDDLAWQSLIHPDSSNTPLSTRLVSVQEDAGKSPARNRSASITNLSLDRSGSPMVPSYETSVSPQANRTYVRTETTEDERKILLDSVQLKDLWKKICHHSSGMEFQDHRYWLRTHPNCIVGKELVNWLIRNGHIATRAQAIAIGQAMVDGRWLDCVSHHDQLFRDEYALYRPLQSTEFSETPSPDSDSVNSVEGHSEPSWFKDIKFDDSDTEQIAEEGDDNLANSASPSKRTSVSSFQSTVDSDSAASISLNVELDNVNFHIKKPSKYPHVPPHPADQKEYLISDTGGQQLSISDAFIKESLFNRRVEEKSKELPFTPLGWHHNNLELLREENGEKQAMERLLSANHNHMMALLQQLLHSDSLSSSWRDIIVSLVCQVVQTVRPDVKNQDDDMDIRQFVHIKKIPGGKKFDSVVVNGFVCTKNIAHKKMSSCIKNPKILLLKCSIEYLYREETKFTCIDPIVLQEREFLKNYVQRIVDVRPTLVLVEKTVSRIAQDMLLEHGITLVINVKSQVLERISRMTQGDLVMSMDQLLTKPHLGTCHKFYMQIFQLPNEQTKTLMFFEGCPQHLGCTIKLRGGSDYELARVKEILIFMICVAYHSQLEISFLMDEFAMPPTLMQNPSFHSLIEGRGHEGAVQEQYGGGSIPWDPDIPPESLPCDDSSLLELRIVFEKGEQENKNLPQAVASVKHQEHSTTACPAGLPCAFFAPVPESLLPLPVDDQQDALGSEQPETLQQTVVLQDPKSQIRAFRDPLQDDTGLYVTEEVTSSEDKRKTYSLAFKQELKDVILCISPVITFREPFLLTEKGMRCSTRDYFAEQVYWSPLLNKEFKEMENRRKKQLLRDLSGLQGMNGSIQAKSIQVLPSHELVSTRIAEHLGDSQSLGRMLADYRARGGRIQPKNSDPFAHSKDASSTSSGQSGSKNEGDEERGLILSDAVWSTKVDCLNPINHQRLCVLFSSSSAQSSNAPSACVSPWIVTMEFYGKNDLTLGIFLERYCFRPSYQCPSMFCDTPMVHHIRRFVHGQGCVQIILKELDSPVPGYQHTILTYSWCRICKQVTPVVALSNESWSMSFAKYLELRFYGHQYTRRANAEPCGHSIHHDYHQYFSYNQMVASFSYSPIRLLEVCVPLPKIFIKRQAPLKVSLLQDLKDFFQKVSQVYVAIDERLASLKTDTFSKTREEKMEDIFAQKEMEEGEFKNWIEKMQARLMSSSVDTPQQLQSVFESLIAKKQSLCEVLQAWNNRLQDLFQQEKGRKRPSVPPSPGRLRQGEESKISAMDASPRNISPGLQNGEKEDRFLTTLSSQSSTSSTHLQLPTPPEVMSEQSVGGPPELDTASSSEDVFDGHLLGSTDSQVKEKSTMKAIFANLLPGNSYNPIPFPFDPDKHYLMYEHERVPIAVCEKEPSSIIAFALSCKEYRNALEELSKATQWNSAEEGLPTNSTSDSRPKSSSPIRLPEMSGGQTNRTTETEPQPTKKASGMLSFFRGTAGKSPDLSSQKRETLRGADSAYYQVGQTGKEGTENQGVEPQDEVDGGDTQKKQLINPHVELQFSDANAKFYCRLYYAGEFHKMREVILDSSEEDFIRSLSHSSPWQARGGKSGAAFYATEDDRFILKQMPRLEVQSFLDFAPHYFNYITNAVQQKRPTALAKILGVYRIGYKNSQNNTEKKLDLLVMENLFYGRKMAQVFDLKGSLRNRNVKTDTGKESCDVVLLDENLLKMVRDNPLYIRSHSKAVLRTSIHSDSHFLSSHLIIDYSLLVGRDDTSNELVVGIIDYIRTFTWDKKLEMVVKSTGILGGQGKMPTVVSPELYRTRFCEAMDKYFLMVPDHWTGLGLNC

In general, IC50 refers to the concentration at which inhibition is half-maximal. In the case of `O=C(Nc1cccc(-c2nc(N3CCOCC3)c3sc(-c4cccnc4)cc3n2)c1)[C@H]1CC[C@@H](O)CC1` [Example 32, (1s,4s)-4-hydroxy-N-(3-(4-morpholino-6-(pyridin-3-yl)thieno[3,2-d]pyrimidin-2-yl)phenyl)cyclohexane-1-carboxamide], the half-maximal inhibitory concentration (IC50) is no more than 50 nM. Turning to `O=C(Nc1cccc(-c2nc(N3CCOCC3)c3sc(-c4cnco4)cc3n2)c1)c1cocn1` [Example 33, N-(3-(4-morpholino-6-(oxazol-5-yl)thieno[3,2-d]pyrimidin-2-yl)phenyl)oxazole-4-carboxamide], the half-maximal inhibitory concentration (IC50) is no more than 50 nM.
